Measurements taken from patent US10309956B2, “Process for assessing risk of substance administration” (priority 2014, dated 2019).
Values after ≈ are worked out from the molar mass of the structure shown.

Legend:
Format in all cases: cell-based, human
[1] = system: PBMCs and NK cells; assay: Perforin levels in TPP-treated total PBMCs and NK cells; conditions: PBMC populations or NK cells
Experimental: (§2) Cells were washed after 3 h treatment and re-plated in a 48-well plate at 1 million cells/well/mL with and without the presence of 10 μg/mL polyinosinic:polycytidylic acid (poly I:C) or lipopolysaccharide (LPS). After a 67 h incubation, supernatants were taken for secreted cytokine analysis. Cells were plated onto a 96-well plate at 1×10^6/mL and further incubated for 4 h with 200 μL of media with Golgiplug (1 μg/mL) (BD Biosciences, San Jose, Calif.) to measure intracellular cytokines. Cells were then harvested, washed and surface stained for CD56-PE and CD2-FITC, CD69-APC monoclonal antibodies (mAB) for 30 min at 4° C. After washing, cells were fixed and permeabilized with BD Biosciences Cytofix/Cytoperm buffer for 20 min on ice in the dark. Cells were then stained with anti-IFN-γ-PE, anti-TNF-α-APC and anti-perforin-FITC mAB and incubated for an additional 30 min on ice. After washing the cells, they were re-suspended in a total volume of 200 μL of 2% paraformaldehyde for FACS analysis. Forward scatter, side scatter, fluorescence intensity and percent positivity were measured after acquiring 100,000 cells per sample by flow cytometry (BD Biosciences, San Jose, Calif.), and the data were analyzed using Cell Quest (BD Biosciences, San Jose, Calif.) and Flow Jo (Tree Star, Ashland, Oreg.) software.

[2] = system: PBMCs; assay: Cytolytic assay: killing of CFSE-labeled K562 target cells by TPP-treated PBMCs
Experimental: The K562 cell line was used as a target in a cytolytic assay. K562 cells were purchased from ATCC (Manassas Va., USA) and grown in RPMI complete media. One vial of cryopreserved PBMCs was thawed and washed, and a live cell count was taken. Different concentrations of TPPs were prepared in 100 μL media. 1.5×10^6 PBMCs in a 50 μL volume were added to each well and incubated for 1.5 h at 37° C. in 96-well round bottom plates. K562 target cells were labeled with carboxy fluorescein succinimidyl ester (CFSE) and added at a density of 100,000 cells/well (target:effector ratio is 1:15). Cell co-cultures were incubated at 37° C. for an additional 4 h. Immediately after the incubation period, cells were stained with 7AAD (which labels the dead cells) and the killing of CFSE-labeled K562 target cells was evaluated after 7AAD staining by flow cytometric analysis (BD Biosciences, San Jose, Calif.). Flow data were analyzed using Flow Jo software (Tree Star, Ashland, Oreg.).

[3] = system: T cells; assay: Intracellular TNF-α and IFN-γ positive T cells in TPP-treated PBMCs stimulated with poly I:C or LPS (flow cytometry)
[4] = system: PBMCs; assay: IL-8 secretion by ELISA after LPS stimulation; conditions: 2 mg/mL
Experimental: Suppression of cytokines was also evident with nicotine. […] Next were measured IL-8 levels in the same samples as above using an ELISA assay.

[5] = system: NK cells; assay: TNF-α+ NK cells in poly I:C- and LPS-stimulated PBMCs treated with TPPs
Experimental: as §2

[6] = system: NK cells; assay: CD69 expression in NK cells of TPP-treated PBMCs (flow cytometry); conditions: 1650 μg/mL
Experimental: Cells were washed after 3 h treatment and re-plated in a 48-well plate at 1 million cells/well/mL with and without the presence of 10 μg/mL polyinosinic:polycytidylic acid (poly I:C) or lipopolysaccharide (LPS). After a 67 h incubation, supernatants were taken for secreted cytokine analysis. Cells were plated onto a 96-well plate at 1×10^6/mL and further incubated for 4 h with 200 μL of media with Golgiplug (1 μg/mL) (BD Biosciences, San Jose, Calif.) to measure intracellular cytokines. Cells were then harvested, washed and surface stained for CD56-PE and CD2-FITC, CD69-APC monoclonal antibodies (mAB) for 30 min at 4° C. After washing, cells were fixed and permeabilized with BD Biosciences Cytofix/Cytoperm buffer for 20 min on ice in the dark. […] Forward scatter, side scatter, fluorescence intensity and percent positivity were measured after acquiring 100,000 cells per sample by flow cytometry (BD Biosciences, San Jose, Calif.), and the data were analyzed using Cell Quest (BD Biosciences, San Jose, Calif.) and Flow Jo (Tree Star, Ashland, Oreg.) software.
CD69 is an early inducible cell surface glycoprotein expressed during lymphoid activation and is involved in NK cell function. PBMCs were treated with TPPs, and CD69 expression on NK cell population was analyzed by flow cytometry after poly I:C and LPS stimulation.

[7] = system: PBMCs; assay: Intracellular cytokine-positive cells after 6 h LPS plus Golgiplug (modified protocol); conditions: total 6 h
Experimental: (§1) Previous methods utilized stimulation with TLR agonists (LPS is for […] and Poly I:C is for TLR3) for 67 h to measure intracellular cytokines and secreted cytokines.

[8] = system: PBMCs; assay: Cell death / viability of PBMCs by 7AAD staining (flow cytometry)
Excerpt: Cell death measured by 7-Aminoactinomycin D (7AAD) staining method is simple and more reliable as 7AAD intercalates into double-stranded nucleic acids and can penetrate cell membranes of dying or dead cells.

[9] = system: PBMCs; assay: Secreted cytokines by CBA after 24 h LPS stimulation (modified protocol)
Experimental: as §1
To measure immunomodulatory effects, PBMCs were stimulated with LPS for different time periods and the secreted cytokines were measured by cytometric bead array (CBA) method. To establish LPS stimulation time, PBMCs were exposed to LPS stimulation for 4 h, 24 h, 48 h and 72 h and secreted cytokines were measured.

## CN1CCCC1c1cccnc1 (centres unmarked) [nicotine]
[1]
  changes in perforin levels: did not result in statistically significant changes
[2]; K562 targets, target:effector 1:15
  target cell killing ability: did not reduce
[2]; low and high doses
  cell killing (K562 targets): did not interfere
[3]; 1650 μg/mL, basal (unstimulated)
  basal levels of TNF-α+ T cells: higher basal levels
[3]; 10-1650 μg/mL, poly I:C and LPS stimulation
  TNF-α+ T cell numbers: did not yield statistically significant differences
[3]; only at the highest concentrations, changes not statistically significant
  IFN-γ+ T cells (cytokine-positive cells): Measurable suppression
[4]
  IL-8 secretion, suppressive effects: significant
[5]; higher dose (1650 μg/mL), after LPS stimulation
  changes in TNF-α+ NK cells: statistically significant reduction
[5]; lower doses (10 and 500 μg/mL)
  changes in TNF-α+ NK cells: did not induce statistically significant changes
[6]
  basal levels of the induction of CD69 relative to untreated cells: did not increase
[7]
  IFN-γ-positive cells, TNF-α-positive cells and MIP-1α-positive cells: dose-dependent percent reduction
[8]; 3 h, 2000 μg/mL
  cell death: 8%
[8]; 24 h, 3,000 μg/mL nicotine, comparable to near 80%
  cell death: comparable degree of cell death
[8]; Homo sapiens, PBMC, 7AAD positive staining of PBMCs, 24 h assay, neat nicotine, read-out: EC50 (concentration at which 50% of the cells were no longer viable)
  EC50: 1650 µg/mL (≈ 10.2 mM)
[9]; LPS stimulation, 24 h
  secreted cytokines: dose-dependent decrease
[9]; highest concentration (4 mg/mL) tested, LPS 24 h
  secreted IL-6: suppressed
[9]; range of concentrations up to 500 μg/mL of nicotine, LPS 24 h
  secreted IFN-γ: significantly suppressed
